Experimental data from PMC10892719 (Pharmaceutics, 2024).

Tests used:
[1] = system: SH-SY5Y cells; assay: Neuroprotection against Aβ1-42-induced toxicity, MTT; format: cell-based, human; conditions: Aβ1-42 1 µM, 24 h, optimized concentration of each compound
Protocol: (§1) Cell viability, following treatment with the compounds, was determined using the colorimetric MTT (3-(4,5-dimethylthiazol-2-yl)-2,5-diphenyltetrazolium bromide) assay. The tested compounds (5a1-3, 5b1-3, 5c1-3) were dissolved in DMSO to produce stock solutions of 25 mM and stored at −20 °C. A concentration screening was performed for 0.5 µM to 20 µM final concentrations to choose the highest nontoxic concentration. SH-SY5Y human neuroblastoma cell line (ATCC-CRL-2266) was cultured in Dulbecco’s modified Eagle’s medium (DMEM) (Gibco-Invitrogen, Life Technologies Ltd., Waltham, MA, USA) with heat-inactivated fetal calf serum (10%), penicillin (50 U/mL) and streptomycin (50 µg/mL) at 37 °C with 5% CO2. Cells were plated at 0.15 × 10^6 cells/mL one day prior to the start of the experiment. The cells were then incubated with the appropriate concentration of the compounds for 24 h. After the incubation period, the cells were washed once with PBS and incubated with 200 µL MTT (0.5 mg/mL) for 2 h at 37 °C with 5% CO2. During this period, cellular dehydrogenase successfully metabolized MTT into formazan, which was then solubilized using 200 µL of 0.04 M HCl/isopropanol. Absorbance was measured at 570 nm.
To test whether the compounds have a protective effect against toxicity induced by Aβ1-42 or iron/ascorbate, the cells were pre-incubated for 1 h with each compound, followed by the addition of Aβ1-42 or iron/ascorbate and incubation for an additional 24 h. Aβ1-42 (Bachem, Torrance, CA, USA) was prepared in sterile water to produce a stock solution of 443 µM and added to the cells at a final concentration of 1 µM. Ferrous sulfate and L-ascorbic acid (Sigma Chemical Co, St. Louis, MO, USA), prepared in sterile water, were added to the medium together at a final concentration of 5 mM and 2.5 mM, respectively. For this assay, the optimal concentration of each compound was used to prevent cellular demise induced by Aβ1-42 or iron/ascorbate. Compound 5a1 was added to the medium at a 1 µM final concentration; compounds 5a2, 5a3, 5b1, 5b2 and 5c2 were added to the medium at a 2.5 µM final concentration; compounds 5c1 and 5c3 were added to the medium at a 5 µM final concentration; and compound 5b3 was added to the medium at a 10 µM final concentration. […] Controls were employed for each plate using untreated cells and Aβ1-42 or iron/ascorbate only. Cell reduction ability was normalized to the untreated condition. All data are expressed as mean ± SEM of at least three independent experiments performed in duplicate. Statistical analyses were performed for normality assessment using Shapiro–Wilk’s test followed by the Kruskal–Wallis test considering that normality was not verified. Post hoc analysis was performed using uncorrected Dunn’s test. A p value < 0.05 was considered statistically significant.
Figure 4 Neuroprotective effect of RIV-IND compounds against cellular toxicity induced by Aβ1-42 measured by MTT reduction ability on SH-SY5Y cells pretreated with […] for one hour, followed by a 24 h incubation with the optimized concentration of each compound. Results are expressed relatively to untreated cells, with the mean ± standard error of the mean (SEM) derived from three to seven independent experiments. * p < 0.05; ** p < 0.01; *** p < 0.001; **** p < 0.0001 compared to untreated cells. # p < 0.05 compared to Aβ1-42-treated cells. (The dot line indicates the decrease in cellular viability induced by Aβ).

[2] = biological target: T1, equine butyrylcholinesterase (eqBChE) (Equus caballus, UniProt P81908); assay: BChE inhibition, adapted Ellman method; format: biochemical; conditions: for SI (selectivity index): IC50 (AChE)/IC50 (BChE); for IC50: eqBChE, mean of two independent experiments ± SD, read-out: BChE Inhib IC50
T1 construct: purchased Sigma-Aldrich (Steinheim, Germany)
T1 sequence (P81908 whole entry): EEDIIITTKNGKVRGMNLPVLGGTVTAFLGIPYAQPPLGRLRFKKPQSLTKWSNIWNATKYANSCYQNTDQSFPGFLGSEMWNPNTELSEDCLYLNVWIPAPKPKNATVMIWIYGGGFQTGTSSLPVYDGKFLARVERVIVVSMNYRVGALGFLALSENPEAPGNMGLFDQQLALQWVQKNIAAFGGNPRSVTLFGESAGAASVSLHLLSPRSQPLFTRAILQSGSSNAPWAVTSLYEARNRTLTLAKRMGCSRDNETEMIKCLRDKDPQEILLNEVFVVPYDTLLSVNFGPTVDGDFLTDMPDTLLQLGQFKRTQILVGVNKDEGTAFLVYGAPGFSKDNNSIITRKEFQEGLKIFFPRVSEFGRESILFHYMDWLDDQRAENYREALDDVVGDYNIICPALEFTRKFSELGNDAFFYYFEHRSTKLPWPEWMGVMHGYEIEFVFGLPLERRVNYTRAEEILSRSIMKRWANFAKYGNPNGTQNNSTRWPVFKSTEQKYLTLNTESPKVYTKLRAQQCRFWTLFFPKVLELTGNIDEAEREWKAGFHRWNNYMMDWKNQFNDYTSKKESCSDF
Protocol: (§2) The enzyme inhibition of electric eel acetylcholinesterase (eeAChE) and equine butyrylcholinesterase (eqBChE) by our compounds was evaluated through an adaptation of Elmman´s method using reagents from Sigma-Aldrich (Steinheim, Germany). Stock solutions of each compound (1 mg) in MeOH (1 mL) were prepared and then working solutions for each ligand were obtained by the corresponding dilution of the stock solutions. A control measurement with 5 replicates (without ligand) and a calibration curve of 5 points with 3 replicates per point was performed. The preparation of each solution involved fixed volumes of 4-(2-hydroxyethyl)-1-piperazine-ethanesulfonic acid (HEPES) and cholinesterase (eeAChE or eqBChE) with different volumes of ligand solution, and it was left to rest for 15 min immediately after adding the cholinesterase. A blank solution containing HEPES and MeOH was also prepared at the same time. […] The slope for each calibration point (absorbance versus reaction time) was determined and the inhibition for each compound was calculated by using the following equation: %Inhibition=100−(vi/v0×100) where vi is the reaction rate (slope) for each point of the calibrate with ligand and v0 is the initial reaction rate (slope) for the control point (without ligand). […] Experiments were performed twice for each compound.

[3] = system: SH-SY5Y cells; assay: Cell viability dose-response screening, MTT; format: cell-based, human
Protocol: as §1
The new RIV-IND hybrids were tested to determine their protective role in the toxicity induced by either Aβ1-42 peptides or iron/ascorbate. SH-SY5Y cells were incubated with a set of concentrations of each of the compounds and a dose–response curve was constructed to select the highest nontoxic concentration.
Figure 3 Dose–response screening of RIV-IND compounds 5a1-3, 5b1-3 and 5c1-3 measured by MTT reduction ability on SH-SY5Y cells treated with different concentrations of the compounds for 24 h. Results are expressed relatively to untreated cells, with the mean ± standard error of the mean (SEM) derived from three independent experiments. * p < 0.05; ** p < 0.01; *** p < 0.001 compared to untreated cells. (The dot line indicates 100% cellular viability).

[4] = system: SH-SY5Y cells; assay: Neuroprotection against iron/ascorbate-induced toxicity, MTT; format: cell-based, human; conditions: ferrous sulfate 5 mM and L-ascorbic acid 2.5 mM, 24 h, optimized concentration of each compound
Protocol: as §1
To test whether the compounds have a protective effect against toxicity induced by Aβ1-42 or iron/ascorbate, the cells were pre-incubated for 1 h with each compound, followed by the addition of Aβ1-42 or iron/ascorbate and incubation for an additional 24 h. Aβ1-42 (Bachem, Torrance, CA, USA) was prepared in sterile water to produce a stock solution of 443 µM and added to the cells at a final concentration of 1 µM. […] All data are expressed as mean ± SEM of at least three independent experiments performed in duplicate. […]
Figure 5 Neuroprotective effect of RIV-IND compounds against cellular toxicity induced by iron/ascorbate (Fe/Asc) measured by MTT reduction ability on SH-SY5Y cells pretreated with iron/ascorbate for one hour, followed by a 24 h incubation with the optimized concentration of each compound. […]

[5] = DPPH free radical scavenging (antioxidant) assay; conditions: read-out: Antioxidant Activity EC50; DPPH method, mean of three independent experiments
Protocol: The radical scavenging activity (antioxidant capacity) of the herein-developed RIV-IND hybrids was determined by the DPPH method [33]. Working solutions of the compounds in 10% DMSO/MeOH (, HoneywellSeelze, Germany) medium were used to prepare 5 methanolic solutions (5 points, 3 replicates) containing DPPH (Sigma-Aldrich, Steinheim, Germany) and different concentrations of compound up to 3.5 mL total volume. […] The respective antioxidant activity (%AA) was calculated using the following equation: %AA=ADPPH−Aligand/ADPPH×100
The reported results were obtained as the mean values of three independent experiments.
The new RIV-IND compounds were also screened for their radical scavenging activity (EC50), according to the 2,2-diphenyl-1-picrylhydrazyl (DPPH) free radical method.

[6] = biological target: T2, electric eel acetylcholinesterase (eeAChE) (Electrophorus electricus, UniProt O42275); assay: AChE inhibition, adapted Ellman method; format: biochemical; conditions: mean of two independent experiments ± SD, read-out: AChE Inhib IC50
T2 construct: purchased Sigma-Aldrich (Steinheim, Germany)
T2 sequence (O42275 24-633): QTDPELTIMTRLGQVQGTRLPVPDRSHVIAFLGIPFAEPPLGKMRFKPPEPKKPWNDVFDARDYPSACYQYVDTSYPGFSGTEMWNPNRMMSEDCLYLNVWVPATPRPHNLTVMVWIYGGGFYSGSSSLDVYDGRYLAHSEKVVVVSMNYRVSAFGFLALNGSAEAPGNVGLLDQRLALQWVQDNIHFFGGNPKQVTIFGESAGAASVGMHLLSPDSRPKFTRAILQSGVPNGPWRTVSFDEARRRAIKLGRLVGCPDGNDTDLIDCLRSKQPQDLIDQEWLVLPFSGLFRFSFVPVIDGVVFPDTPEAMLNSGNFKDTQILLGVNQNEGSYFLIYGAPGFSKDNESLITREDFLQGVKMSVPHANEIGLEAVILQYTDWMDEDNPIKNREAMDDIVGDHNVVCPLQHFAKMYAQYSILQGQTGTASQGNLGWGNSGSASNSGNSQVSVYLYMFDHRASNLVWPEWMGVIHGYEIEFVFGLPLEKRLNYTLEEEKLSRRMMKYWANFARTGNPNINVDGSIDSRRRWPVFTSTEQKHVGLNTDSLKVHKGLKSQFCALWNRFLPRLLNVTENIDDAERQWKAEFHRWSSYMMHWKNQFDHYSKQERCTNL
Protocol: as §2

SMILES	neuroprotective effect against toxicity induced by Aβ1-42 [1]	SI (selectivity index) [2]	IC50 [2] [µM]	highest nontoxic concentration ([3]; when used with Aβ1-42) [µM]	highest nontoxic concentration ([3]; when used with iron/ascorbate) [µM]	neuroprotective effect against toxicity induced by iron/ascorbate [4]	EC50 [5] [µM]	IC50 [6] [µM]	highest nontoxic concentration ([3]; 24 h, screening 0.5 µM to 20 µM) [µM]
CCN(C)C(=O)Oc1cccc(CNC(=O)c2cc3ccccc3[nH]2)c1 [Compound 5b1, 3-((1H-indole-2-carboxamido)methyl)phenyl ethylmethylcarbamate]	able to rescue Aβ1-42-induced toxicity to levels that were not significantly different from untreated cells	9.4	8.3 ± 0.1	2.5	1	also present a neuroprotective effect	> 2000	78.4 ± 0.8	
CCN(C)C(=O)Oc1cccc(NC(=O)c2cc3cccc(O)c3[nH]2)c1 [Compound 5a3, 3-(7-Hydroxy-1H-indole-2-carboxamido)phenyl ethyl(methyl)carbamate]	also present neuroprotection	1.05	10.4 ± 0.4			also present a neuroprotective effect	14.5 ± 0.5	10.9 ± 0.1	2.5
